Measured values: patent publication US20210009959A1, “METHODS FOR ENHANCING OSTEOGENIC DIFFERENTIATION USING VITAMIN D” (priority 2019, published 2021)

Key:
Format in all cases: cell-based
[1] = test system: human adipose stem cells (hASCs); test: ALP activity of hASCs in 3D PLGA/β-TCP scaffold, dynamic and static culture
Method: (§1) In one embodiment, dynamic culture of pre-treated hASCs with calcitriol, using the modified perfusion bioreactor comprises the following steps. In one embodiment, the scaffolds are 3D PLGA/β-TCP. The modified perfusion bioreactor […] comprises five scaffolds, loaded with a total of 70 ml of culture medium as shown in FIG. 2. At another step, 30 ml of the culture medium is replaced twice a week for a total period of two weeks. At another step, the culture medium in the modified perfusion bioreactor 200 is distributed to the five scaffolds with the flow rate of about 5 ml/min using the peristaltic pump 202.
(§2) In one embodiment, the method of static culture of pre-treated hASCs is continued in a flask bioreactor with the same volume of culture medium utilized in the dynamic culture. Further, the methods of culturing the hASCs are divided into different groups. In one embodiment, the methods of culturing of hASCs are divided into four groups such as, static culture of non-treated hASCs, static culture of pre-treated hASCs with calcitriol, dynamic culture of non-treated hASCs and dynamic culture of pre-treated hASCs with calcitriol.
Referring to FIG. 10, the effects of dynamic pre-treated/non-treated hASCs versus static pre-treated/non-treated hASCs on ALP activity of hASCs are disclosed, where the hASCs are seeded in 3D PLGA/β-TCP scaffold. In one embodiment, the hASCs are pre-treated with or without 10 nM calcitriol for 30 minutes and cultured in the modified perfusion bioreactor 200 (dynamic culture) and flask bioreactor (static culture). The ALP activity of hASCs after 7 days perfusion culture of pre-treated hASCs is increased by 9.2-fold compared to static culture of pre-treated hASCs, and the ALP activity of non-treated hASCs is increased by 10.3-fold compared to static culture of non-treated hASCs.
The 14 days of perfusion culture of non-treated hASCs increases ALP activity by 1.4-fold relative to static counterpart, and perfusion culture of pre-treated hASCs increases ALP activity by 2.2-fold relative to static culture of pre-treated hASCs. Moreover, calcitriol pre-treatment increases ALP activity of hASCs by 2.8-fold at day 7 and 1.3-fold at day 14 compared to non-treated hASCs in static condition. On the whole, the highest ALP activity is observed at day 7, which belongs to perfusion culture of pre-treated hASCs with calcitriol.

[2] = test system: human adipose stem cells (hASCs); test: Osteogenic gene expression of hASCs seeded on BCP20/80 scaffold; conditions: for RUNX2 gene expression, increase: 30 min incubation
Method: In one embodiment, a method of static culture of hASCs by pre-treatment with vitamin D3 (calcitriol) and attachment of hASCs to the scaffold used in one-step surgical procedure comprises the following steps. At one step, isolating hASCs as explained in FIG. 1. In an embodiment, the hASCs from three donors at passage 3 are used for further processing. As an optional step, the obtained hASCs are either or not incubated for a period of about 30 mins with low concentrated calcitriol of about 10 nM at room temperature.
At next step, the calcitriol treated hASCs are washed twice with Phosphate Buffered Saline (PBS) to remove calcitriol. Further, the washed hASCs are centrifuged and resuspended in Dulbecco's Minimum Essential Medium (DMEM) without any supplements. At another step, the resuspended cells are seeded on the scaffold and allowed to attach to the scaffolds for a period of about 30 minutes. At next step, the scaffolds with attached cells are transferred to 12-well plates with Costar® Transwell® containers (Corning Life Sciences, Lowell, Mass., USA) containing expansion medium (DMEM) supplemented with 10% Fetal Clone I (FCI), antibiotics (1% penicillin/streptomycin/fungizone (PSF)), 50 μM ascorbic acid (Merck, Darmstadt, Germany), and 10 mM β-glycerol phosphate (Merck, Darmstadt, Germany) (PLGA/β-TCP). At next step, the hASCs seeded scaffolds are incubated at 5% CO2 in a humidified incubator at predefined temperature of about 37° C. for a period of about 3 weeks.
Referring to FIGS. 8A to 8I, the effects of short and long calcitriol treatment on osteogenic gene expression of hASCs is disclosed, where hASCs are seeded in BCP scaffold. The stimulatory effect of 30 min calcitriol on osteogenic gene expression in hASCs seeded on BCP20/80 at day 21 is more noticeable than continuous calcitriol treatment. The 30 mins incubation with calcitriol increases the RUNX2 (early osteogenic marker) gene expression in hASCs by 3.6-fold after 2 weeks, and 5.7-fold after 3 weeks of culture compared to non-treated hASCs. FIGS. 8A to 8I exemplarily illustrate the effects of calcitriol treatment on osteogenic gene expression of hASCs.
The 30 minutes pre-treatment of hASCs with calcitriol increases VEGF189 gene expression, whereas in continuous calcitriol treatment, the VEGF189 gene expression reaches almost steady expression levels during the 3 weeks of culture. The VEGF189 gene expression in 30 minutes calcitriol pre-treated hASCs is increased by 1.5-fold at day 21, but it is decreased in continuous treatment by 0.6-fold compared to non-treated hASCs as shown in FIG. 8I.

[3] = test system: human adipose stem cells (hASCs); test: Metabolic activity / cell proliferation of hASCs in 3D PLGA/β-TCP scaffold, dynamic (perfusion bioreactor) and static (flask) culture
Method: as §1, §2
Referring to FIG. 9, the effects of dynamic pre-treated/non-treated hASCs versus static pre-treated/non-treated hASCs on metabolic activity or cell proliferation of hASCs is disclosed, where the pre-treated hASCs are seeded in 3D PLGA/β-TCP scaffold. In one embodiment, the hASCs are pre-treated with or without 10 nM calcitriol for 30 minutes and cultured in the modified perfusion bioreactor 200 (dynamic culture) and flask bioreactor (static culture). […] Also, the culturing groups are compared and there is no significant difference between the groups. However, the 14 days of dynamic culture of both non-treated hASCs and pre-treated hASCs increases cell proliferation by 1.1-fold relative to 7 days of culture.
In addition, alamarBlue assay, ALP assay, ALP staining, analysis of osteogenic and angiogenic gene expression and related protein content to evaluate the synergistic effects of flow-induced shear stress using a modified perfusion bioreactor and calcitriol pre-treatment are used for the examinations.

[4] = continuous treatment, 3 weeks of culture

For `C=C1/C(=C\C=C2/CCC[C@]3(C)[C@@H]([C@H](C)CCCC(C)(C)O)CC[C@@H]23)C[C@@H](O)C[C@@H]1O` [calcitriol, 1,25-dihydroxyvitamin D3], the “ALP activity, increase” value ([1]; 7 days, perfusion culture of pre-treated hASCs vs static culture of pre-treated hASCs) was 9.2 fold, the “ALP activity, increase” value ([1]; 7 days, perfusion culture of pre-treated vs perfusion culture of non-treated hASCs) was 2.6 fold and the “ALP activity, increase” value ([1]; 14 days, perfusion culture of pre-treated vs static culture of pre-treated hASCs) was 2.2 fold. The “ALP activity, increase” value ([1]; static condition, day 7, pre-treated vs non-treated hASCs) was 2.8 fold, the “ALP activity, increase” value ([1]; static condition, day 14, pre-treated vs non-treated hASCs) was 1.3 fold and the ALP gene expression ([2]; 30 min calcitriol, BCP20/80) was “upregulates”. The “RUNX2 gene expression, increase” value ([2]; after 2 weeks, vs non-treated hASCs) was 3.6 fold, the “RUNX2 gene expression, increase” value ([2]; after 3 weeks, vs non-treated hASCs) was 5.7 fold and the CYP24 gene expression ([2]; 30 min pre-treated cells) was “not expressed”. The Ki-67 gene expression ([2]; 30 min pre-treatment, 3 weeks of culture) was “decreases”, the VDR gene expression ([2]; 30 min pre-treatment, compared to continuous treatment, maximal stimulation at day 14) was “increases” and the “SPARC expression, increase” value ([2]; 30 min pre-treatment, day 14) was 2.1 fold. For the same molecule, the “VEGF189 gene expression, increase” value ([2]; 30 min pre-treatment, day 21, vs non-treated hASCs) was 1.5 fold, the OPN expression ([2]; 30 min treatment, day 21) was “increases” and the CYP24 gene expression [2, 4] was “remarkably increases”. For the same molecule, the Ki-67 gene expression [2, 4] was “no change”, the “RUNX2 expression, decrease” value ([2]; continuous treatment, after 2 weeks) was 0.81 fold and the “RUNX2 expression, increase” value ([2]; continuous treatment, after 3 weeks) was 2.4 fold. The OPN gene expression ([2]; continuous treatment, day 4) was “upregulates”, the “SPARC expression, decrease” value ([2]; continuous treatment, day 14) was 0.8 fold and the “VEGF189 gene expression, decrease” value ([2]; continuous treatment, day 21, vs non-treated hASCs) was 0.6 fold. For the same molecule, the DMP1 gene expression ([2]; over about 3 weeks, treatment group not specified) was “gradual and insignificant increase”, the “cell proliferation, increase” value ([3]; dynamic culture of pre-treated hASCs, 14 days relative to 7 days of culture) was 1.1 fold and the “cell proliferation, increase” value ([3]; dynamic culture of pre-treated hASCs, 14 days, relative to the first day) was 10.8 fold. For the same molecule, the “cell proliferation, increase” value ([3]; dynamic culture of pre-treated hASCs, after 7 days, relative to the first day) was 9.9 fold, the cell proliferation ([3]; perfusion culture of pre-treated vs perfusion culture of non-treated hASCs, after 7 and 14 days) was “slightly decelerates” and the “cell proliferation, increase” value ([3]; static culture of pre-treated hASCs (10 nM, 30 min), after 7 days, relative to the first day) was 10.6 fold. For the same molecule, the “cell proliferation, increase” value ([3]; static culture of pre-treated hASCs, 14 days, relative to the first day) was 1.6 fold.
